Experimental data: PMC11822212, “High-throughput screening identifies Aurora kinase B as a critical therapeutic target for Merkel cell carcinoma” (Nature Communications, 2025)
Read-outs that look alike come from different tables or passages of the source.

Tests used:
[1] = system: MCC13 cells (VN-MCC); assay: qHTS cell viability (CellTiter-Glo, 72 h; primary and follow-up small molecule screen); type: cell-based, human
[2] = system: MCC26 cells (VN-MCC); assay: as above; type: cell-based, human
[3] = system: UISO cells (VN-MCC); assay: as above; type: cell-based, human
[4] = system: WAGA cells (VP-MCC); assay: as above; type: cell-based, human
[5] = system: MKL-1 cells (VP-MCC); assay: as above; type: cell-based, human
[6] = system: MKL-2 cells (VP-MCC); assay: as above; type: cell-based, human
[7] = system: HACAT cells; assay: qHTS cell viability (CellTiter-Glo, 72 h; primary screen), control cell line; type: cell-based, human
[8] = system: HEK293T cells; assay: as above; type: cell-based, human
[9] = system: NIH-3T3 cells; assay: as above; type: cell-based, mouse
[10] = system: CRL-7250 cells; assay: as above; type: cell-based
[11] = system: MCC cell lines (WAGA, MKL-1, MKL-2, MCC13, MCC26, UISO); assay: qHTS cell viability, all six MCC cell lines as a group (mean AUC, MCC.avg); type: cell-based, human
[12] = system: VP-MCC cell lines (WAGA, MKL-1, MKL-2); assay: qHTS cell viability, VP-MCC cell lines as a group (mean AUC, VP.MCC.avg); type: cell-based, human
[13] = system: VN-MCC cell lines (MCC13, MCC26, UISO); assay: qHTS cell viability, VN-MCC cell lines as a group (mean AUC, VN.MCC.avg); type: cell-based, human
[14] = system: control cell lines (HACAT, HEK293T, CRL-7250, NIH-3T3); assay: qHTS cell viability, control cell lines as a group (mean AUC, Control.avg); type: cell-based
[15] = system: six MCC cell lines and four control cell lines; assay: qHTS cell viability, all 10 cell lines screened; type: cell-based
[16] = MIPE library, 11-point DRC, sheet S2E
[17] = MIPE library, 11-point DRC, control cell line, sheet S2E

For `CC(=O)O[C@]1(C(C)=O)CC[C@H]2[C@@H]3C=C(C)C4=CC(=O)CC[C@]4(C)[C@H]3CC[C@@]21C` [Megestrol acetate], the MCC13_AUC [1, 16] was 479.341, the MCC13_AUC ([1]; area under the dose-response curve, MCC13 cells, AUC<450 = reduced viability) was 479.661 and the “Area under the dose-response curve (AUC) MCC13 Replicate 1” value ([1]; follow-up screen, MCC13, replicate 1) was 522.1. For the same molecule, the “Area under the dose-response curve (AUC) MCC13 Replicate 2” value ([1]; follow-up screen, MCC13, replicate 2) was 498.9, the “Area under the dose-response curve (AUC) MCC13 Replicate 3” value ([1]; follow-up screen, MCC13, replicate 3) was 453.4 and the MCC26_AUC [2, 16] was 477.94. The MCC26_AUC ([2]; area under the dose-response curve, MCC26 cells, AUC<450 = reduced viability) was 486.411, the “Area under the dose-response curve (AUC) MCC26 Replicate 1” value ([2]; follow-up screen, MCC26, replicate 1) was 464.5 and the “Area under the dose-response curve (AUC) MCC26 Replicate 2” value ([2]; follow-up screen, MCC26, replicate 2) was 445.6. The “Area under the dose-response curve (AUC) MCC26 Replicate 3” value ([2]; follow-up screen, MCC26, replicate 3) was 484.7, the UISO_AUC [3, 16] was 463.276 and the UISO_AUC ([3]; area under the dose-response curve, UISO cells, AUC<450 = reduced viability) was 481.624. For the same molecule, the “Area under the dose-response curve (AUC) UISO Replicate 1” value ([3]; follow-up screen, UISO, replicate 1) was 487.9, the “Area under the dose-response curve (AUC) UISO Replicate 2” value ([3]; follow-up screen, UISO, replicate 2) was 467.2 and the “Area under the dose-response curve (AUC) UISO Replicate 3” value ([3]; follow-up screen, UISO, replicate 3) was 452.8. The WAGA_AUC [4, 16] was 348.793, the WAGA_AUC ([4]; area under the dose-response curve, WAGA cells, AUC<450 = reduced viability) was 442.363 and the “Area under the dose-response curve (AUC) WAGA Replicate 1” value ([4]; follow-up screen, WAGA, replicate 1) was 536.2. For the same molecule, the “Area under the dose-response curve (AUC) WAGA Replicate 2” value ([4]; follow-up screen, WAGA, replicate 2) was 483.3, the “Area under the dose-response curve (AUC) WAGA Replicate 3” value ([4]; follow-up screen, WAGA, replicate 3) was 478.6 and the MKL1_AUC [5, 16] was 380.312. The MKL1_AUC ([5]; area under the dose-response curve, MKL-1 cells, AUC<450 = reduced viability) was 437.052, the “Area under the dose-response curve (AUC) MKL-1 Replicate 1” value ([5]; follow-up screen, MKL-1, replicate 1) was 482.4 and the “Area under the dose-response curve (AUC) MKL-1 Replicate 2” value ([5]; follow-up screen, MKL-1, replicate 2) was 475.6. The “Area under the dose-response curve (AUC) MKL-1 Replicate 3” value ([5]; follow-up screen, MKL-1, replicate 3) was 473.0, the MKL2_AUC [6, 16] was 396.638 and the MKL2_AUC ([6]; area under the dose-response curve, MKL-2 cells, AUC<450 = reduced viability) was 447.482. For the same molecule, the “Area under the dose-response curve (AUC) MKL-2 Replicate 1” value ([6]; follow-up screen, MKL-2, replicate 1) was 460.3, the “Area under the dose-response curve (AUC) MKL-2 Replicate 2” value ([6]; follow-up screen, MKL-2, replicate 2) was 492.7 and the “Area under the dose-response curve (AUC) MKL-2 Replicate 3” value ([6]; follow-up screen, MKL-2, replicate 3) was 490.0. It also gave an HACAT_AUC [7, 17] of 434.851, an HACAT_AUC ([7]; area under the dose-response curve, HACAT control cells, AUC<450 = reduced viability) of 455.962 and an HEK293T_AUC [8, 17] of 472.9. For the same molecule, the HEK293T_AUC ([8]; area under the dose-response curve, HEK293T control cells, AUC<450 = reduced viability) was 457.911, the NIH3T3_AUC [9, 17] was 472.047 and the NIH3T3_AUC ([9]; area under the dose-response curve, NIH3T3 control cells, AUC<450 = reduced viability) was 478.678. The CRL7250_AUC [10, 17] was 475.825, the CRL7250_AUC ([10]; area under the dose-response curve, CRL7250 control cells, AUC<450 = reduced viability) was 475.174 and the MCC_Avg_AUC ([11]; MIPE library, mean AUC of six MCC cell lines, sheet S2E) was 424.384. It also gave a Control-VP-MCC ([12]; MIPE library, Control AUC minus VP-MCC AUC (therapeutic window), sheet S2E) of 88.658, a VP-MCC_Avg_AUC ([12]; MIPE library, mean AUC of VP-MCC cell lines, sheet S2E) of 375.248 and a Control-VN-MCC ([13]; MIPE library, Control AUC minus VN-MCC AUC (therapeutic window), sheet S2E) of -9.613. For the same molecule, the VN-MCC_Avg_AUC ([13]; MIPE library, mean AUC of VN-MCC cell lines, sheet S2E) was 473.519, the Control_Avg_AUC ([14]; MIPE library, mean AUC of control cell lines, sheet S2E) was 463.906 and the Control-MCC ([15]; MIPE library, Control AUC minus MCC AUC (therapeutic window), sheet S2E) was 39.5225.

`N[C@@H](Cc1ccc(N(CCCl)CCCl)cc1)C(=O)O` [Melphalan] gave an MCC13_AUC [1] of 467.949, an MCC26_AUC [2] of 465.715 and a UISO_AUC [3] of 405.245. The WAGA_AUC [4] was 417.577, the MKL1_AUC [5] was 386.049 and the MKL2_AUC [6] was 377.097. It also gave an HACAT_AUC [7] of 448.936, an HEK293T_AUC [8] of 460.279 and an NIH3T3_AUC [9] of 465.754. The CRL7250_AUC [10] was 448.797, the MCC_Avg_AUC [11] was 419.939 and the Control-VP-MCC [12] was 62.3672. The VP-MCC_Avg_AUC [12] was 393.574, the Control-VN-MCC [13] was 9.639 and the VN-MCC_Avg_AUC [13] was 446.303. For the same molecule, the Control_Avg_AUC [14] was 455.942 and the Control-MCC [15] was 36.0029.
